According to the supplement of paper PMC11061612:

Tests used:
Experiment in all cases: combination Emax (second highest fraction inhibited in the dose matrix, 72 h); higher = more inhibition; extreme values may be limits of the assay
[1] = system: SNU-175 (Colorectal Carcinoma)
In short: (§1)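 After 24 hours at 37°C and 5% CO2 in 1536-well plates, cells in DMEM/F12 or RPMI plus 10% FBS received two-drug dose matrices for 72 hours. Viability came from CellTiter-Glo 2.0 luminescence and was scaled as inhibition, anchored at 0 by vehicle wells and at 1 by blank wells. Combination Emax is taken as the second-highest inhibition in the matrix, and Bliss excess as the observed combination effect less EA + EB − EA·EB, with EA and EB the single-agent effects.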

[2] = system: COLO-684 (Endometrial Carcinoma)
In short: as §1

[3] = system: RPMI-8866 (Chronic Myelogenous Leukemia)
In short: as §1

[4] = system: CML-T1 (Chronic Myelogenous Leukemia)
In short: as §1

[5] = system: AN3-CA (Endometrial Carcinoma)
In short: as §1

[6] = system: SJRH30 (Rhabdomyosarcoma)
In short: as §1

[7] = system: Calu-6 (Non-Small Cell Lung Carcinoma)
In short: as §1

[8] = system: BALL-1 (B-Lymphoblastic Leukemia)
In short: as §1

RT4 (Bladder Carcinoma) = system: RT4 (Bladder Carcinoma)
In short: as §1

[9] = system: Becker (Low Grade Glioma)
In short: as §1

[10] = system: NCI-H1755 (Lung Adenocarcinoma)
In short: as §1

[11] = system: NCI-H1623 (Lung Adenocarcinoma)
In short: as §1

[12] = system: SW684 (Other Solid Carcinomas)
In short: as §1

[13] = system: FLO-1 (Esophageal Adenocarcinoma)
In short: as §1

[14] = system: EB-3 (Burkitt's Lymphoma)
In short: as §1

CHL-1 (Melanoma) = system: CHL-1 (Melanoma)
In short: as §1

[15] = system: NCI-H1563 (Lung Adenocarcinoma)
In short: as §1

ES-2 (Ovarian Carcinoma) = system: ES-2 (Ovarian Carcinoma)
In short: as §1

KYM-1 (Rhabdomyosarcoma) = system: KYM-1 (Rhabdomyosarcoma)
In short: as §1

[16] = system: HSC-3 (Oral Cavity Carcinoma)
In short: as §1

NC1(C(=O)N[C@@H](CCO)c2ccc(Cl)cc2)CCN(c2ncnc3[nH]ccc23)CC1 [Capivasertib] + CC(=O)c1c(C)c2cnc(Nc3ccc(N4CCNCC4)cn3)nc2n(C2CCCC2)c1=O [Palbociclib] (first compound max 10 µM, 7x7, partner max 10 µM)
combination Emax [1]: 0.634
combination Emax [2]: 0.632
combination Emax [3]: 0.75
combination Emax [4]: 0.939
combination Emax [5]: 0.803
combination Emax [6]: 0.794
combination Emax [7]: 0.415
combination Emax [8]: 0.597
combination Emax (RT4 (Bladder Carcinoma)): 0.362
combination Emax [9]: 0.624
combination Emax [10]: 0.659
combination Emax [11]: 0.506
combination Emax [12]: 0.54
combination Emax [13]: 0.551
combination Emax [14]: 0.428
combination Emax (CHL-1 (Melanoma)): 0.191
combination Emax [15]: 0.47
combination Emax (ES-2 (Ovarian Carcinoma)): 0.72
combination Emax (KYM-1 (Rhabdomyosarcoma)): 0.85
combination Emax [16]: 0.78

NC1(C(=O)N[C@@H](CCO)c2ccc(Cl)cc2)CCN(c2ncnc3[nH]ccc23)CC1 [Capivasertib] + CC(C)n1c(=O)n(C)c2cnc3cc(F)c(-c4ccc(OCCCN5CCCCC5)nc4)cc3c21 [AZD1390] (first compound max 10 µM, 7x7, partner max 0.3 µM)
combination Emax [1]: 0.269
combination Emax [2]: 0.56
combination Emax [3]: 0.402
combination Emax [4]: 0.656
combination Emax [5]: 0.756
combination Emax [6]: 0.701
combination Emax [7]: 0.222
combination Emax [8]: 0.576
combination Emax (RT4 (Bladder Carcinoma)): 0.0517
combination Emax [9]: 0.522
combination Emax [10]: 0.443
combination Emax [11]: 0.477
combination Emax [12]: 0.536
combination Emax [13]: 0.346
combination Emax [14]: 0.522
combination Emax (CHL-1 (Melanoma)): 0.126
combination Emax [15]: 0.452
combination Emax (ES-2 (Ovarian Carcinoma)): 0.257
combination Emax (KYM-1 (Rhabdomyosarcoma)): 0.52
combination Emax [16]: 0.608

NC1(C(=O)N[C@@H](CCO)c2ccc(Cl)cc2)CCN(c2ncnc3[nH]ccc23)CC1 [Capivasertib] + CCN(CCO)CCCOc1ccc2c(Nc3cc(CC(=O)Nc4cccc(F)c4)[nH]n3)ncnc2c1 [AZD2811] (first compound max 10 µM, 7x7, partner max 1 µM)
combination Emax [1]: 0.846
combination Emax [2]: 0.659
combination Emax [3]: 0.562
combination Emax [4]: 0.9
combination Emax [5]: 0.786
combination Emax [6]: 0.734
combination Emax [7]: 0.413
combination Emax [8]: 0.74
combination Emax (RT4 (Bladder Carcinoma)): 0.457
combination Emax [9]: 0.535
combination Emax [10]: 0.648
combination Emax [11]: 0.555
combination Emax [12]: 0.617
combination Emax [13]: 0.415
combination Emax [14]: 0.458
combination Emax (CHL-1 (Melanoma)): 0.567
combination Emax [15]: 0.441
combination Emax (ES-2 (Ovarian Carcinoma)): 0.413
combination Emax (KYM-1 (Rhabdomyosarcoma)): 0.559
combination Emax [16]: 0.689

NC1(C(=O)N[C@@H](CCO)c2ccc(Cl)cc2)CCN(c2ncnc3[nH]ccc23)CC1 [Capivasertib] + COc1nnc2ccc(N3CCC(c4ccc(OCCN5CCN(C)C(=O)[C@H]5C)cc4)CC3)nn12 [AZD5153] (first compound max 10 µM, 7x7, partner max 1 µM)
combination Emax [1]: 0.649
combination Emax [2]: 0.782
combination Emax [3]: 0.839
combination Emax [4]: 0.703
combination Emax [5]: 0.75
combination Emax [6]: 0.876
combination Emax [7]: 0.461
combination Emax [8]: 0.973
combination Emax (RT4 (Bladder Carcinoma)): 0.457
combination Emax [9]: 0.593
combination Emax [10]: 0.717
combination Emax [11]: 0.52
combination Emax [12]: 0.579
combination Emax [13]: 0.612
combination Emax [14]: 0.752
combination Emax (CHL-1 (Melanoma)): 0.708
combination Emax [15]: 0.76
combination Emax (ES-2 (Ovarian Carcinoma)): 0.766
combination Emax (KYM-1 (Rhabdomyosarcoma)): 0.874
combination Emax [16]: 0.861

NC1(C(=O)N[C@@H](CCO)c2ccc(Cl)cc2)CCN(c2ncnc3[nH]ccc23)CC1 [Capivasertib] + C[C@@H]1COCCN1C2=NC(=NC(=C2)C3(CC3)[S@](=N)(=O)C)C4=C5C=CNC5=NC=C4 [AZD6738] (first compound max 10 µM, 7x7, partner max 10 µM)
combination Emax [1]: 0.709
combination Emax [2]: 0.798
combination Emax [3]: 0.911
combination Emax [4]: 0.988
combination Emax [5]: 0.849
combination Emax [6]: 0.89
combination Emax [7]: 0.792
combination Emax [8]: 1
combination Emax (RT4 (Bladder Carcinoma)): 0.577
combination Emax [9]: 0.747
combination Emax [10]: 0.83
combination Emax [11]: 0.82
combination Emax [12]: 0.587
combination Emax [13]: 0.652
combination Emax [14]: 0.651
combination Emax (CHL-1 (Melanoma)): 0.732
combination Emax [15]: 0.501
combination Emax (ES-2 (Ovarian Carcinoma)): 0.86
combination Emax (KYM-1 (Rhabdomyosarcoma)): 0.969
combination Emax [16]: 0.764

NC1(C(=O)N[C@@H](CCO)c2ccc(Cl)cc2)CCN(c2ncnc3[nH]ccc23)CC1 [Capivasertib] + Cn1cnc2c(F)c(Nc3ccc(Br)cc3Cl)c(C(=O)NOCCO)cc21 [Selumetinib] (first compound max 10 µM, 7x7, partner max 10 µM)
combination Emax [1]: 0.534
combination Emax [2]: 0.63
combination Emax [3]: 0.432
combination Emax [4]: 0.828
combination Emax [5]: 0.815
combination Emax [6]: 0.769
combination Emax [7]: 0.707
combination Emax [8]: 0.478
combination Emax (RT4 (Bladder Carcinoma)): 0.45
combination Emax [9]: 0.65
combination Emax [10]: 0.644
combination Emax [11]: 0.813
combination Emax [12]: 0.626
combination Emax [13]: 0.559
combination Emax [14]: 0.325
combination Emax (CHL-1 (Melanoma)): 0.367
combination Emax [15]: 0.4
combination Emax (ES-2 (Ovarian Carcinoma)): 0.616
combination Emax (KYM-1 (Rhabdomyosarcoma)): 0.52
combination Emax [16]: 0.786

Cc1nc(Nc2ncc(C(=O)Nc3c(C)cccc3Cl)s2)cc(N2CCN(CCO)CC2)n1 [Dasatinib] + CC(=O)Nc1cccc(-n2c(=O)n(C3CC3)c(=O)c3c(Nc4ccc(I)cc4F)n(C)c(=O)c(C)c32)c1 [Trametinib] (first compound max 2 µM, 7x7, partner max 1 µM)
combination Emax [1]: 0.425
combination Emax [2]: 0.0848
combination Emax [3]: 0.556
combination Emax [4]: 0.966
combination Emax [5]: 0.491
combination Emax [6]: 0.157
combination Emax [7]: 0.969
combination Emax [8]: 0.257
combination Emax (RT4 (Bladder Carcinoma)): 0.822
combination Emax [9]: 0.5
combination Emax [10]: 0.961
combination Emax [11]: 0.576
combination Emax [12]: 0.609
combination Emax [13]: 0.966
combination Emax [14]: 0.362
combination Emax (CHL-1 (Melanoma)): 0.409
combination Emax [15]: 0.447
combination Emax (ES-2 (Ovarian Carcinoma)): 0.86
combination Emax (KYM-1 (Rhabdomyosarcoma)): 0.401
combination Emax [16]: 0.867
